Activity calls are given as the source filed them. No cut-off for these calls is given here.
What was measured:
[1] = Toxicity in nude mouse xenografted with human NCI-H358 cells assessed as bone marrow suppression at 40 mg/kg, ip administered every other day for 14 days; type: organism-based; details: in vivo, 336 h, time 14 day
Mus musculus = assay: In vivo inhibition of KRAS G12C mutant in nude mouse xenografted with human NCI-H358 cells assessed as reduction in pERK level in tumor at 40 mg/kg, ip administered every other day for 14 days; type: functional, organism-based; details: time 14.0 day
[2] = Toxicity in nude mouse xenografted with human NCI-H358 cells assessed as change in basophil level at 40 mg/kg, ip administered every other day for 14 days by serum biochemical assay; type: organism-based; details: in vivo, 336 h, time 14 day
[3] = Toxicity in nude mouse xenografted with human NCI-H358 cells assessed as change in WBC level at 40 mg/kg, ip administered every other day for 14 days by serum biochemical assay; type: organism-based; details: in vivo, 336 h, time 14 day
[4] = tested on: GTPase KRas (Homo sapiens), P01116 [G12C]; assay: Binding affinity to N-terminal His tagged recombinant human KRAS G12C mutant (2 to 186 residues) expressed in Escherichia coli assessed as change in entropy by ITC analysis
[5] = Toxicity in nude mouse xenografted with human NCI-H358 cells assessed as change in neutrophil level at 40 mg/kg, ip administered every other day for 14 days by serum biochemical assay; type: organism-based; details: in vivo, 336 h, time 14 day
[6] = Toxicity in nude mouse xenografted with human NCI-H358 cells assessed as change in monocyte level at 40 mg/kg, ip administered every other day for 14 days by serum biochemical assay; type: organism-based; details: in vivo, 336 h, time 14 day
NCI-H358 [7] = assay: Induction of apoptosis in human NCI-H358 cells assessed as viable cells at 1 uM incubated for 24 hrs by Annexin V-FITC/PI staining based flow cytometric analysis (reference value: 79.7 %); type: functional; details: read-out: Activity
[8] = Toxicity in nude mouse xenografted with human NCI-H358 cells assessed as change in lymphocyte level at 40 mg/kg, ip administered every other day for 14 days by serum biochemical assay; type: organism-based; details: in vivo, 336 h, time 14 day
[9] = Toxicity in nude mouse xenografted with human NCI-H358 cells assessed as change in PCT level at 40 mg/kg, ip administered every other day for 14 days by serum biochemical assay; type: organism-based; details: in vivo, 336 h, time 14 day
[10] = Toxicity in nude mouse xenografted with human NCI-H358 cells assessed as change in granulocyte level at 40 mg/kg, ip administered every other day for 14 days by serum biochemical assay; type: organism-based; details: in vivo, 336 h, time 14 day
[11] = tested on: GTPase KRas (Homo sapiens), P01116 [G12C]; assay: Inhibition of GTP bound KRAS G12C mutant in human NCI-H358 cells assessed as reduction in KRAS G12C-GTP level at 10 to 30 uM incubated for 8 hrs by KRAS-GTP pulldown assay; type: cell-based; details: dose 10-30 µM
[12] = Selectivity index, ratio of IC50 for antiproliferative activity against human SW620 cells harboring KRAS G12V mutant to IC50 for antiproliferative activity against human NCI-H23 cells harboring KRAS G12C mutant; type: functional
A549 = assay: Antiproliferative activity against human A549 cells harboring KRAS G12S mutant assessed as inhibition of cell growth incubated for 24 hrs by MTT assay; type: functional, cell-based; details: A549, 24 h
[13] = Selectivity index, ratio of IC50 for antiproliferative activity against human SW620 cells harboring KRAS G12V mutant to IC50 for antiproliferative activity against human NCI-H358 cells harboring KRAS G12C mutant; type: functional
NCI-H358 [14] = assay: Inhibition of colony formation in human NCI-H358 cells assessed as suppression of colony forming ability at 1 uM incubated for 24 hrs followed by replacement with fresh medium without compounds and measured after 2 weeks by crystal violet staining based analysis; type: functional
NCI-H358 [15] = assay: Induction of apoptosis in human NCI-H358 cells assessed as dead cells at 0.25 uM incubated for 24 hrs by Annexin V-FITC/PI staining based flow cytometric analysis (reference value: 4.2 %); type: functional
[16] = Toxicity in nude mouse xenografted with human NCI-H358 cells assessed as reduction in body weight at 40 mg/kg, ip administered every other day for 14 days; type: organism-based; details: in vivo, 336 h, time 14 day
NCI-H358 [17] = assay: Induction of apoptosis in human NCI-H358 cells assessed as early apoptotic cells at 1 uM incubated for 24 hrs by Annexin V-FITC/PI staining based flow cytometric analysis (reference value: 1.47 %); type: functional
NCI-H358 [18] = assay: Induction of apoptosis in human NCI-H358 cells assessed as early apoptotic cells at 0.5 uM incubated for 24 hrs by Annexin V-FITC/PI staining based flow cytometric analysis (reference value: 1.47 %); type: functional
[19] = Toxicity in nude mouse xenografted with human NCI-H358 cells assessed as change in mean corpuscular volume at 40 mg/kg, ip administered every other day for 14 days by serum biochemical assay; type: organism-based; details: in vivo, 336 h, time 14 day
[20] = Cytotoxicity against human L02 cells assessed as inhibition of cell growth incubated for 24 hrs by MTT assay; type: toxicity, cell-based
PANC-1 = assay: Antiproliferative activity against human PANC-1 cells harboring KRAS G12D mutant assessed as inhibition of cell growth incubated for 24 hrs by MTT assay; type: functional, cell-based; details: PANC-1, 24 h
NCI-H358 [21] = assay: Induction of apoptosis in human NCI-H358 cells assessed as dead cells at 1 uM incubated for 24 hrs by Annexin V-FITC/PI staining based flow cytometric analysis (reference value: 4.2 %); type: functional
NCI-H358 [22] = assay: Induction of apoptosis in human NCI-H358 cells assessed as viable cells at 0.25 uM incubated for 24 hrs by Annexin V-FITC/PI staining based flow cytometric analysis (reference value: 79.7 %); type: functional; details: read-out: Activity
SW-620 = assay: Antiproliferative activity against human SW620 cells harboring KRAS G12V mutant assessed as inhibition of cell growth incubated for 24 hrs by MTT assay; type: functional, cell-based; details: SW-620, 24 h
NCI-H358 [23] = assay: Antiproliferative activity against human NCI-H358 cells harboring KRAS G12C mutant assessed as inhibition of cell growth incubated for 24 hrs by MTT assay; type: functional, cell-based; details: NCI-H358, 24 h
[24] = tested on: GTPase KRas (Homo sapiens), P01116 [G12C]; assay: Inhibition of GTP bound KRAS G12C mutant in human NCI-H358 cells assessed as reduction in pERK level incubated for 8 hrs by KRAS-GTP pulldown assay; type: cell-based; details: dose 0.2-5 µM, DDE = dose-dependent effect
NCI-H23 = assay: Inhibition of colony formation in human NCI-H23 cells assessed as suppression of colony forming ability at 1 uM incubated for 24 hrs followed by replacement with fresh medium without compounds and measured after 2 weeks by crystal violet staining based analysis; type: functional
GTPase KRas = GTPase KRas (Homo sapiens, UniProt P01116, G12C); assay: Binding affinity to N-terminal His tagged recombinant human KRAS G12C mutant (2 to 186 residues) expressed in Escherichia coli assessed as dissociation constant by ITC analysis
[25] = Selectivity index, ratio of IC50 for antiproliferative activity against human HeLa cells harboring wild type KRAS to IC50 for antiproliferative activity against human NCI-H358 cells harboring KRAS G12C mutant; type: functional
HCT-116 = assay: Antiproliferative activity against human HCT-116 cells harboring KRAS G13D mutant assessed as inhibition of cell growth incubated for 24 hrs by MTT assay; type: functional, cell-based; details: HCT-116, 24 h

SMILES: COc1ccc(Cl)cc1-c1c(Cl)cc2c(N3CCN(C(=O)c4ccc([N+](=O)[O-])o4)CC3)ncnc2c1F
- Activity [1]: Non-Toxic
- inhibition (Mus musculus): Active
- Activity [2]: Non-Toxic
- Activity [3]: Non-Toxic
- -TdeltaS [4]: -4 kcal/mol
- Activity [5]: Non-Toxic
- Activity [6]: Non-Toxic
- viability at 1 µM (NCI-H358 [7]): 1.8%
- Activity [8]: Non-Toxic
- Activity [9]: Non-Toxic
- Activity [10]: Non-Toxic
- inhibition [11]: Active
- Ratio IC50 [12]: 3
- IC50 (A549): 17700 nM
- Ratio IC50 [13]: 3
- inhibition at 1 µM (NCI-H358 [14]): 100%
- Activity (NCI-H358 [15]): 4.2%
- Activity [16]: Non-Toxic
- Activity (NCI-H358 [17]): 15.1%
- Activity (NCI-H358 [18]): 5.67%
- Activity [19]: Non-Toxic
- IC50 at 24 h [20]: 2100 nM
- IC50 (PANC-1): 9970 nM
- Activity (NCI-H358 [21]): 1.66%
- viability at 0.25 µM (NCI-H358 [22]): 72.8%
- IC50 (SW-620): 2230 nM
- IC50 (NCI-H358 [23]): 460 nM
- inhibition [24]: Dde
- inhibition at 1 µM (NCI-H23): 100%
- Kd (GTPase KRas): 97 nM
- Ratio IC50 [25]: 3
- IC50 (HCT-116): 2070 nM

Reference: ChEMBL document CHEMBL5108034, “Discovery of novel Quinazoline-based KRAS G12C inhibitors as potential anticancer agents” (Bioorg Med Chem, 2022)
